Patent US20140314697A1, “Method for Inhibiting Inflammation and Reducing Melanophilin Expression with Glycine Derivatives And the Composition Thereof” (CORUM INC., priority 2013, published 2014)

How the values were obtained:
[1] = system: Mlph (melanophilin) protein in B16-F10 cells; assay: Reduction of melanophilin expression on translational level (western blot); type: cell-based, Murine; conditions: B16-F10 w/FSK; for Mlph protein expression level, Average / Mlph protein expression level, Entry 1 / Mlph protein expression level, Entry 2 / Mlph protein expression level, Entry 3: about 48 hours, Positive Control 100%
Description: (§1) Murine melanoma cell line B16-F10 (BCRC No. 60031)
Complete Medium (as negative control): DMEM with 10% Fetal Bovine Serum
Testing Medium (as positive control): 20 μM forskolin (FSK) in Complete Medium
(§2) a. Rinse the confluent B16-F10 cells with sterile D-PBS then trypsinize all cells and perform cell counting.
b. Seeding 2.5E+05 cells per 6-cm dish.
(§3) c. Incubate B16F10 cells at 37° C., 5% CO2 for about 24 hours.
d. Prepared 0.5%/0.25%/0.125% testing material in Testing Medium.
e. Discard the medium and add 3 mL controls and testing material into B16-F10 cells in 6-cm dish.
f. Incubate B16-F10 cells at 37° C., 5% CO2 for about 48 hour.
g. After incubating for about 48 hours, discard the supernatant and wash the B16-F10 cells with sterile D-PBS.
h. Mlph protein expression is measured by western blot. Western blot conditions: • Loading protein amount: 40 μg/well • Protein transfer by Semi-dry Transfer Apparatus • Immunoblot with Primary Ab (1:250 dilution) at 4° C. overnight • Incubate with secondary Ab (1:5000 dilution) at room temperature for 1 hour • Detection was performed with the ECL system • Relative quantification of protein expression was measured by IMAGEJ free software). β-actin was used as the internal control for normalization • Data Analysis: […]

[2] = system: Mlph (melanophilin) mRNA in B16-F10 cells; assay: Reduction of melanophilin expression on transcriptional level (qPCR); type: cell-based, Murine
Description: as §1, §2
b. Seeding 2E+06 cells per 10-cm dish.
as §3
d. Prepared 0.5% testing material in Complete Medium.
e. Discard the medium and add 9 mL Complete Medium and 0.5% testing material into B16-F10 cells in 10-cm dish.
f. Incubate B16-F10 cells at 37° C., 5% CO2 for about 1 hour.
g. After incubating for about 1 hour, discard the supernatant and wash the B16-F10 cells with sterile D-PBS.
h. Add 3 mL Trizol to suspend cells and qPCR test by Welgene Biotech Co., Ltd (outsourcing test).

[3] = system: skin color (hyper pigmentation); assay: Skin whitening test: skin color changes (L* value), Minolta chromameter; type: in vivo, human; conditions: for Hyper pigmentation Reduction - Skin Color Data, Max % Improvement / Hyper pigmentation Reduction - Skin Color Data, % Difference: 0.2% Ac-Gly-β-Ala sample; for Hyper pigmentation Reduction - Skin Color Data, % Difference: L* value
Description: In this example, the in-vivo skin test is finished by AMA Laboratories USA. The skin color changes are evaluated with Minolta chromameter color computer system. The Age spot photography is evaluated with Reverse Photo Engineering Quantitative Analysis.
In terms of skin color changes, the participants were women aged 25-48 years old, wherein nine of the participants were caucasian, and one was Asian. The participants were tested before (baseline), and after using 14, 28, 56 days with Minolta chromameter color computer system to perform the skin color change evaluation. And the samples used for the skin color change evaluation is 0.2% Ac-Gly-β-Ala.

[4] = system: Mouse IL-6 secretion, RAW264.7; assay: Mouse IL-6 production in Raw264.7 cells (ELISA); type: cell-based; conditions: for Mouse IL-6 Content, Average / Mouse IL-6 Content, Entry 2 / Mouse IL-6 Content, Entry 3 / Mouse IL-6 Content, Entry 1: Raw264.7, LPS & IFN-r, 24 hours, Positive Control 100%; for Mouse IL-6 Content, Entry 2: passage N + 3; for Mouse IL-6 Content, Entry 3: passage N + 6; for Mouse IL-6 Content, Entry 1: passage N + 7
Description: (§4) Murine macrophage cell line RAW264.7 (BCRC No. 60001)
(§5) Complete Medium (as negative control): DMEM medium with 10% Fetal Bovine Serum
(§6) Testing Medium (as positive control): 100 ng/mL LPS and 10 ng/mL IFN-r in Complete Medium
(§7) a. Rinse the confluent Raw264.7 cells with sterile D-PBS then trypsinize all cells and perform cell counting.
(§8) b. Dilute the cell density to 2E+05/mL and seed 0.1 mL cell liquid (equals to 2E+04 cells) each well in 96-well plate.
(§9) c. Incubate Raw264.7 cells at 37° C., 5% CO2 for about 24 hours.
(§10) d. Prepared 2× dosing solution of testing material in 2× Testing Medium (means w/ 200 ng/mL ? LPS&20 ng/mL ? IFN-r): 0.8%, 0.4%, 0.2%, 0.1% (Final testing material: 0.4%, 0.2%, 0.1%, 0.05%)
(§11) e. […] Add 100 μL controls and testing materials in different concentrations into Raw264.7 cells in 96 well plates. Controls/Test materials should be tested at least three wells.
(§12) f. Incubate Raw264.7 cells at 37° C., 5% CO2 for about 24 hours.
(§13) g. After incubating for about 24 hours, collect the supernatant of controls and testing materials.
(§14) h. Determine the IL-6/MIP-2 content of the supernatant by R&D ELISA kit as mentioned previously.

[5] = system: Mouse MIP-2 secretion, RAW264.7; assay: Mouse MIP-2 production in Raw264.7 cells (ELISA); type: cell-based; conditions: for Mouse MIP-2 Content, Average / Mouse MIP-2 Content, Entry 2 / Mouse MIP-2 Content, Entry 1 / Mouse MIP-2 Content, Entry 3: Raw264.7, LPS & IFN-r, 24 hours, Positive Control 100%; for Mouse MIP-2 Content, Entry 2: passage N + 3; for Mouse MIP-2 Content, Entry 1: passage N + 5; for Mouse MIP-2 Content, Entry 3: passage N + 6
Description: as §4, §5, §6, §7, §8, §9, §10, §11, §12, §13, §14

[6] = 0.5% Ac-Gly-β-Ala, B16-F10, about 1 hour, Control 100%

CC(=O)NCC(=O)NCCC(=O)O [Ac-Gly-β-Ala, 3-(2-acetylamino-acetylamino)-propionic acid]
Mlph protein expression level, Average ([1]; 0.125%): 71.3%
Mlph protein expression level, Entry 1 ([1]; 0.125%): 66.8%
Mlph protein expression level, Entry 2 ([1]; 0.125%): 65.7%
Mlph protein expression level, Entry 3 ([1]; 0.125%): 81.2%
Mlph protein expression level, Average ([1]; 0.25%): 62.0%
Mlph protein expression level, Entry 1 ([1]; 0.25%): 49.4%
Mlph protein expression level, Entry 2 ([1]; 0.25%): 12.8%
Mlph protein expression level, Entry 3 ([1]; 0.25%): 123.8%
Mlph protein expression level, Average ([1]; 0.5%): 24.3%
Mlph protein expression level, Entry 1 ([1]; 0.5%): 36.5%
Mlph protein expression level, Entry 2 ([1]; 0.5%): 10.6%
Mlph protein expression level, Entry 3 ([1]; 0.5%): 25.8%
effect on Mlph in translational (protein) level [1]: inhibitory effect
Mlph mRNA expression level, Average [2, 6]: 55%
Mlph mRNA expression level, Entry 1 [2, 6]: 80%
Mlph mRNA expression level, Entry 2 [2, 6]: 40%
Mlph mRNA expression level, Entry 3 [2, 6]: 46%
effect on Mlph in transcriptional (mRNA) level ([2]; 0.5%, B16-F10): inhibitory effect
Hyper pigmentation Reduction - Skin Color Data, Max % Improvement ([3]; Day 14): 62.84%
Hyper pigmentation Reduction - Skin Color Data, % Difference ([3]; Day 14 vs baseline): 26.90%*
Hyper pigmentation Reduction - Skin Color Data, Max % Improvement ([3]; Day 28): 87.34%
Hyper pigmentation Reduction - Skin Color Data, % Difference ([3]; Day 28 vs baseline): 41.07%*
Hyper pigmentation Reduction - Skin Color Data, Max % Improvement ([3]; Day 56): 87.97%
Hyper pigmentation Reduction - Skin Color Data, % Difference ([3]; Day 56 vs baseline): 41.64%*
L* value of skin ([3]; test sample with 0.2% Ac-Gly-β-Ala): can increase the L* value of skin
IL-6 production, dose dependence ([4]; 0.05%-0.4%, Raw264.7): dose-dependently inhibited
Mouse IL-6 Content, Average ([4]; 0.05%): 97%
Mouse IL-6 Content, Entry 2 ([4]; 0.05%): 105%
Mouse IL-6 Content, Entry 3 ([4]; 0.05%): 95%
Mouse IL-6 Content, Entry 1 ([4]; 0.05%): 91%
Mouse IL-6 Content, Average ([4]; 0.10%): 86%
Mouse IL-6 Content, Entry 2 ([4]; 0.10%): 96%
Mouse IL-6 Content, Entry 3 ([4]; 0.10%): 78%
Mouse IL-6 Content, Entry 1 ([4]; 0.10%): 85%
Mouse IL-6 Content, Average ([4]; 0.20%): 54%
Mouse IL-6 Content, Entry 2 ([4]; 0.20%): 58%
Mouse IL-6 Content, Entry 3 ([4]; 0.20%): 42%
Mouse IL-6 Content, Entry 1 ([4]; 0.20%): 64%
Mouse IL-6 Content, Average ([4]; 0.40%): 34%
Mouse IL-6 Content, Entry 2 ([4]; 0.40%): 40%
Mouse IL-6 Content, Entry 3 ([4]; 0.40%): 40%
Mouse IL-6 Content, Entry 1 ([4]; 0.40%): 24%
MIP-2 production, dose dependence ([5]; 0.05%-0.4%, Raw264.7): inhibited MIP-2 production in dose-dependent manner
Mouse MIP-2 Content, Average ([5]; 0.05%): 78%
Mouse MIP-2 Content, Entry 2 ([5]; 0.05%): 79%
Mouse MIP-2 Content, Entry 1 ([5]; 0.05%): 75%
Mouse MIP-2 Content, Entry 3 ([5]; 0.05%): 81%
Mouse MIP-2 Content, Average ([5]; 0.10%): 65%
Mouse MIP-2 Content, Entry 2 ([5]; 0.10%): 66%
Mouse MIP-2 Content, Entry 1 ([5]; 0.10%): 64%
Mouse MIP-2 Content, Entry 3 ([5]; 0.10%): 65%
Mouse MIP-2 Content, Average ([5]; 0.20%): 48%
Mouse MIP-2 Content, Entry 2 ([5]; 0.20%): 44%
Mouse MIP-2 Content, Entry 1 ([5]; 0.20%): 50%
Mouse MIP-2 Content, Entry 3 ([5]; 0.20%): 48%
Mouse MIP-2 Content, Average ([5]; 0.40%): 31%
Mouse MIP-2 Content, Entry 2 ([5]; 0.40%): 32%
Mouse MIP-2 Content, Entry 1 ([5]; 0.40%): 21%
Mouse MIP-2 Content, Entry 3 ([5]; 0.40%): 38%
